The record followed here is US8952222B2, “Herbicide resistant sunflower plants derived from RW-B cultivar” (Anglo Netherlands Grain B.V., priority 2008, dated 2015).

Values joined by “and” are separate entries in the source; they are usually repeats but may differ in a detail not shown here. Equal entries are not always repeated. Marks after values point to notes of the source that are not given here.

What all share (format): in vivo
In assay [1] the test system is sunflower line RW-B. In words: Resistance to different AHAS-inhibitor herbicides, Phytotoxicity Index (FIG. 4). The following applies: concentration of at least 67 grams of active ingredient per hectare. From the text: Sunflower lines: The following genetic sunflower lines were used in determining AHAS resistance: two S lines (“B770” and “HA89”), two lines resistant to SUs derived from the population SURES (SuBL and SuRL), two lines resistant to IMIs derived from the population IMISUN (“Rha 426” and “B770imi”) and the line “RW-B”. […] SURES and IMISUN are breeding populations release by the USDA. B770 is a proprietary line from Nidera. B770imi is a proprietary line with B770 background carrying the resistant gene Imr1. RW-B was obtained as described above.
Plants were grown in a greenhouse under natural light conditions supplemented with 400 W halide lamps to provide a 14 h day length. Day/night temperatures were 25 and 20° C., respectively. […] Plants without any symptoms were recorded as “0,” increasing levels of stunting and yellowing with respect to the untreated control plants were recorded as “1” to “4,” increasing levels of leaf abnormalities and leaf necrosis were recorded from “5” to “8,” and dead plants with total necrosis of the apex were recorded as “9.” PI data for each experiment were analyzed by an ANOVA test, means were compared by a LSD test.
Response of sunflower lines (B770, HA89, SuBL, SuRL, Rha426, B770imi and RW-B) to four different families of AHAS inhibiting herbicides. […] The injury was measured using Phytotoxicity Index (PI).

In assay [2] the test system is sunflower line B770. In words: Greenhouse spray with imazapyr, visual inspection for injury. The following applies: imazapyr 80 gr ai/ha, two weeks after treatment. The method, then:
(§1) 300 seeds of a wild sunflower population known to be tolerant to IMIs were sown under greenhouse conditions at Nidera Experimental Station in Venado Tuerto, Santa Fe, Argentina, together with the control lines HA89, B770 (Susceptible—[…]), BTI-M1 and RHA426 (Resistant—“R”). At the V4 stage all the plants were sprayed with imazapyr at a rate of 80 gr ai/ha. Two weeks after treatment, all the plants were evaluated by visual inspection for injury. S lines HA89 and B770 were killed by the treatment. […] In total, […] plants of the wild population resisted the herbicide treatment and 129 were killed (categorized as S).
One R plant (RW-73) was used as male in crosses with the cultivated susceptible lines HA89 and B770. Ten to 20 F1 plants from each cross were sprayed with imazapyr at a rate of 80 gr ai/ha, using B770 (S) and BTI-M1 (R) as controls. […] However, imazapyr treatment killed the B770 plants.

In assay [3] the test system is sunflower line RHA426. Described as above. The following applies: imazapyr 80 gr ai/ha at V4, two weeks after treatment. The method, then:
as §1

In assay [4] the test system is sunflower line HA89. The description is as above. The following applies: imazapyr 80 gr ai/ha at V4, two weeks after treatment. The method, then: as §1
Assay [5] concerns sunflower line BTI-M1. The assay is described as above. As to conditions: imazapyr 80 gr ai/ha at V4, two weeks after treatment. The method, then: as §1
For assay [6], the system named is sunflower line RHA426. As to the kind of experiment: Allelism test, challenge with imazapyr. The following applies: control line RHA426; imazapyr 320 g a.i. ha-1 at V2-V4. From the text: RW-B plants were crossed with RHA426 in order to determine if the resistant gene in RW-B is allelic to Imr1, the mutation previously described in imidazolinone resistant inbred lines. In this cross, F1 hybrids plants were self pollinated and backcrossed to RHA426 to obtain the F2 and BC1F1 generations, respectively. Plants from the parents and from F1, F2 and BC were challenged with 160 g a.i. ha^−1 and 320 g a.i. ha^−1 of imazapyr at the V2-V4 stage. Post challenge, plants were scored as described above.
On the other hand, when F2 and BC populations were scored after applying herbicide at the higher rate (320 g a.i. ha^−1), segregation for susceptibility could be observed. Only two phenotypic classes were detected, a resistant class composed of plants that were without any sign of injury or only slight symptoms, and a susceptible phenotype that was killed at this dose in much the same way as the control line RHA426.

Assay [7] deals with sunflower line B770. As to the kind of experiment: Whole plant dose response to imazapyr. The following applies: line B770 (WT-Susceptible), 14 DAT; for Dry weight (as a % of the untreated plants): above ground biomass; for Phytotoxicity Index: scale 0-9. The method, then: (§2) Seeds were sown in Petri dishes and, after germination; plantlets were transplanted to pots of 10 cm of diameter in a potting media consisting of equal parts of vermiculite, soil and sand. Plants were grown in a greenhouse under natural light conditions supplemented with 400 W sodium halide lamps to provide a 16 hr day-length. Day/night temperatures were 25 and 20° C., respectively. At the V2-V4 stage (Schneiter & Miller, 1981) 10 plants of each genotype were randomly assigned to each treatment consisting of eight imazapyr doses (0, 40, 80, 160, 320, 480, 640 and 800 g ai/ha, without treatment, 0.5×, 1×, 2×, 4×, 6×, 8× and 10× respectively), and a zero-time biomass determination. Experiment was arranged as a randomized block design with a full factorial (sunflower line x treatment) arrangement of treatments and 10 replications.
(§3) On the day of herbicide application ten plants of each genotype were cut at the cotyledonal node and dried at 60° C. for 48 hrs for zero-time dried weight determination.
(§4) The remaining plants were maintained for 14 days after imazapyr treatment (DAT) and their height, Phytotoxicity Index (PI) and above ground dry biomass were determined. Height was determined as the distance between the cotyledonal node and the apex of each plant. Above ground biomass data from each line were converted to biomass accumulation after application by subtracting the appropriate average zero-time biomass from each sample. Dry biomass data were converted to percentages of the untreated control plants within each line to allow direct comparisons between groups. […] Plants without any symptoms were recorded as “0”, increasing levels of stunting and chlorosis with respect to the untreated control plants were recorded as “1” to “4”, increasing levels of leaf abnormalities and leaf necrosis were recorded from “5” to “8”, and dead plants with total necrosis of the apex were recorded as “9”.

Assay [8] concerns sunflower line RW-B. In words: Whole plant dose response to imazapyr. The following applies: from 4x to 10x rates of herbicide application, 14 DAT. The method, then: as §2, §3, §4

As for `CCOc1nc(F)cc2nc(S(=O)(=O)Nc3c(Cl)cccc3C(=O)OC)nn12` [cloransulam-methyl], the “resistance of RW-B” value in assay [1] is listed as “resistance”.
With `CC(C)C1(C)N=C(c2ncccc2C(=O)O)NC1=O` (stereo not shown) [imazapyr], the “injury by visual inspection” value was “killed” in assay [2], “signs of chlorosis” in assay [3], “killed” in assay [4] and “did not present any signs of damage” in assay [5]. In addition, the response to imazapyr entry in assay [6] is “killed”. Also, the “Dry weight (as a % of the untreated plants)” value was 32.7^d % in assay [7] (imazapyr 0.5x = 40 g ai/ha); 30.2^d % in assay [7] (imazapyr 1x = 80 g ai/ha); 27.6^d % in assay [7] (imazapyr 2x = 160 g ai/ha); 26.5^d % in assay [7] (imazapyr 4x = 320 g ai/ha); 25.9^d % in assay [7] (imazapyr 6x = 480 g ai/ha); 25.7^d % in assay [7] (imazapyr 8x = 640 g ai/ha). In assay [7] (imazapyr 10x = 800 g ai/ha), the “Dry weight (as a % of the untreated plants)” value is listed as 25.2^d %. The “Height (as % of the untreated plants)” value in assay [7] (imazapyr 0.5x = 40 g ai/ha) is 35.0% and 35.0^c %; in assay [7] (imazapyr 1x = 80 g ai/ha) it was 31.8^c %; in assay [7] (imazapyr 2x = 160 g ai/ha) it was 31.9^d %; in assay [7] (imazapyr 4x = 320 g ai/ha) it was 31.9^d %; in assay [7] (imazapyr 6x = 480 g ai/ha), 31.6^d %; in assay [7] (imazapyr 8x = 640 g ai/ha), 31.7^d %. Moreover, the “Height (as % of the untreated plants)” value in assay [7] (imazapyr 10x = 800 g ai/ha) was 31.4^c %. Also, the “Phytotoxicity Index” value is recorded as 8.9^a in assay [7] (imazapyr 0.5x = 40 g ai/ha); 9^a in assay [7] (imazapyr 1x = 80 g ai/ha); 9^a in assay [7] (imazapyr 2x = 160 g ai/ha); 9^a in assay [7] (imazapyr 4x = 320 g ai/ha); 9^a in assay [7] (imazapyr 6x = 480 g ai/ha); 9^a in assay [7] (imazapyr 8x = 640 g ai/ha). The “Phytotoxicity Index” value in assay [7] (imazapyr 10x = 800 g ai/ha) is reported as 9^a. Also, the “height, % of the untreated control plants” value in assay [8] amounted to 75%.
